Laboratory results: the supplement of paper PMC10307832

Experiments:
Assay in all cases: relative viability (nuclei count vs DMSO), 5 days (fraction); higher = more cells survive
NCI-H2009 = system: NCI-H2009
How it was run: (§1)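 Medians of duplicate plates are given as relative viability. That measure is the nuclei count in treated wells divided by the count in vehicle wells. Counts were taken on 4× images of lung cancer cell lines in 1536-well plates, 5 days after pin-tool dosing the day after seeding with one drug alone or a fixed anchor-drug dose plus five library-drug doses (not always all listed) in √10 steps.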

PC-14 = system: PC-14
How it was run: as §1

EKVX = system: EKVX
How it was run: as §1

LK-2 = system: LK-2
How it was run: as §1

HCC-366 = system: HCC-366
How it was run: as §1

NCI-H661 = system: NCI-H661
How it was run: as §1

LU99A = system: LU99A
How it was run: as §1

NCI-H441 = system: NCI-H441
How it was run: as §1

COR-L23 = system: COR-L23
How it was run: as §1

ABC-1 = system: ABC-1
How it was run: as §1

NCI-H1437 = system: NCI-H1437
How it was run: as §1

HARA = system: HARA
How it was run: as §1

CAL-12T = system: CAL-12T
How it was run: as §1

NCI-H2170 = system: NCI-H2170
How it was run: as §1

NCI-H838 = system: NCI-H838
How it was run: as §1

NCI-H3122 = system: NCI-H3122
How it was run: as §1

NCI-H727 = system: NCI-H727
How it was run: as §1

BEN = system: BEN
How it was run: as §1

NCI-H1666 = system: NCI-H1666
How it was run: as §1

COR-L 105 = system: COR-L 105
How it was run: as §1

201T = system: 201T
How it was run: as §1

What does the source list for `C=C1C(=O)O[C@@H](CCCCCCCC)[C@@H]1C(=O)O` [C-75] + Cc1nc(NC(=O)N2CCC[C@H]2C(N)=O)sc1-c1ccnc(C(C)(C)C(F)(F)F)c1 [Alpelisib] (partner 2 µM)?
relative viability (NCI-H2009; first compound 0.08 µM): 1.17; relative viability (NCI-H2009; first compound 0.253 µM): 1.14; relative viability (NCI-H2009; first compound 0.8 µM): 1.18; relative viability (NCI-H2009; first compound 2.53 µM): 1.14; relative viability (NCI-H2009; first compound 8 µM): 1.03; relative viability (PC-14; first compound 0.08 µM): 0.897; relative viability (PC-14; first compound 0.253 µM): 1.02; relative viability (PC-14; first compound 0.8 µM): 0.904; relative viability (PC-14; first compound 2.53 µM): 0.901; relative viability (PC-14; first compound 8 µM): 1.01; relative viability (EKVX; first compound 0.08 µM): 0.885; relative viability (EKVX; first compound 0.253 µM): 0.863; relative viability (EKVX; first compound 0.8 µM): 0.913; relative viability (EKVX; first compound 2.53 µM): 0.583; relative viability (EKVX; first compound 8 µM): 0.969; relative viability (LK-2; first compound 0.08 µM): 0.921; relative viability (LK-2; first compound 0.253 µM): 0.771; relative viability (LK-2; first compound 0.8 µM): 1.13; relative viability (LK-2; first compound 2.53 µM): 1.28; relative viability (LK-2; first compound 8 µM): 1; relative viability (HCC-366; first compound 0.08 µM): 0.502; relative viability (HCC-366; first compound 0.253 µM): 0.48; relative viability (HCC-366; first compound 0.8 µM): 0.381; relative viability (HCC-366; first compound 8 µM): 0.404; relative viability (NCI-H661; first compound 0.08 µM): 0.545; relative viability (NCI-H661; first compound 0.253 µM): 0.477; relative viability (NCI-H661; first compound 0.8 µM): 0.657; relative viability (NCI-H661; first compound 2.53 µM): 0.409; relative viability (NCI-H661; first compound 8 µM): 0.718; relative viability (LU99A; first compound 0.08 µM): 0.537; relative viability (LU99A; first compound 0.253 µM): 0.547; relative viability (LU99A; first compound 0.8 µM): 0.516; relative viability (LU99A; first compound 2.53 µM): 0.483; relative viability (LU99A; first compound 8 µM): 0.389; relative viability (NCI-H441; first compound 0.08 µM): 0.762; relative viability (NCI-H441; first compound 0.253 µM): 0.734; relative viability (NCI-H441; first compound 0.8 µM): 0.577; relative viability (NCI-H441; first compound 2.53 µM): 0.589; relative viability (NCI-H441; first compound 8 µM): 0.602; relative viability (COR-L23; first compound 0.08 µM): 0.762; relative viability (COR-L23; first compound 0.253 µM): 1.02; relative viability (COR-L23; first compound 0.8 µM): 0.753; relative viability (COR-L23; first compound 2.53 µM): 0.741; relative viability (COR-L23; first compound 8 µM): 0.723; relative viability (ABC-1; first compound 0.08 µM): 0.983; relative viability (ABC-1; first compound 0.253 µM): 1.12; relative viability (ABC-1; first compound 0.8 µM): 0.879; relative viability (ABC-1; first compound 2.53 µM): 0.991; relative viability (ABC-1; first compound 8 µM): 0.585; relative viability (NCI-H1437; first compound 0.08 µM): 0.942; relative viability (NCI-H1437; first compound 0.253 µM): 0.969; relative viability (NCI-H1437; first compound 0.8 µM): 1.01; relative viability (NCI-H1437; first compound 2.53 µM): 0.961; relative viability (NCI-H1437; first compound 8 µM): 1.07; relative viability (HARA; first compound 0.08 µM): 0.849; relative viability (HARA; first compound 0.253 µM): 1; relative viability (HARA; first compound 0.8 µM): 0.767; relative viability (HARA; first compound 8 µM): 0.883; relative viability (CAL-12T; first compound 0.08 µM): 1.19; relative viability (CAL-12T; first compound 0.253 µM): 1.47; relative viability (CAL-12T; first compound 0.8 µM): 1.12; relative viability (CAL-12T; first compound 8 µM): 1.33; relative viability (NCI-H2170; first compound 0.08 µM): 0.796; relative viability (NCI-H2170; first compound 0.253 µM): 0.779; relative viability (NCI-H2170; first compound 0.8 µM): 0.776; relative viability (NCI-H2170; first compound 2.53 µM): 0.741; relative viability (NCI-H2170; first compound 8 µM): 0.713; relative viability (NCI-H838; first compound 0.08 µM): 0.949; relative viability (NCI-H838; first compound 0.253 µM): 0.675; relative viability (NCI-H838; first compound 0.8 µM): 0.928; relative viability (NCI-H838; first compound 2.53 µM): 0.79; relative viability (NCI-H838; first compound 8 µM): 0.919; relative viability (NCI-H3122; first compound 0.08 µM): 0.767; relative viability (NCI-H3122; first compound 0.253 µM): 0.922; relative viability (NCI-H3122; first compound 0.8 µM): 0.765; relative viability (NCI-H3122; first compound 8 µM): 0.801; relative viability (NCI-H727; first compound 0.08 µM): 0.467; relative viability (NCI-H727; first compound 0.253 µM): 0.76; relative viability (NCI-H727; first compound 0.8 µM): 0.616; relative viability (NCI-H727; first compound 2.53 µM): 0.579; relative viability (NCI-H727; first compound 8 µM): 0.688; relative viability (BEN; first compound 0.08 µM): 0.983; relative viability (BEN; first compound 0.253 µM): 1.15; relative viability (BEN; first compound 0.8 µM): 0.953; relative viability (BEN; first compound 2.53 µM): 0.926; relative viability (BEN; first compound 8 µM): 0.91; relative viability (NCI-H1666; first compound 0.08 µM): 0.908; relative viability (NCI-H1666; first compound 0.253 µM): 1.13; relative viability (NCI-H1666; first compound 0.8 µM): 0.879; relative viability (NCI-H1666; first compound 2.53 µM): 0.987; relative viability (NCI-H1666; first compound 8 µM): 0.71; relative viability (COR-L 105; first compound 0.08 µM): 1.15; relative viability (COR-L 105; first compound 0.253 µM): 1.1; relative viability (COR-L 105; first compound 0.8 µM): 1.06; relative viability (COR-L 105; first compound 2.53 µM): 0.895; relative viability (COR-L 105; first compound 8 µM): 0.668; relative viability (201T; first compound 0.08 µM): 0.981; relative viability (201T; first compound 0.253 µM): 1.08; relative viability (201T; first compound 0.8 µM): 1.02; relative viability (201T; first compound 2.53 µM): 0.975; relative viability (201T; first compound 8 µM): 1.07
